Experimental data as given in patent US20260184726A1, “HETEROCYCLIC COMPOUNDS AS KINASE INHIBITORS, COMPOSITIONS, AND METHODS OF USE THEREOF” (JS INNOMED HOLDINGS LTD., priority 2022, published 2026).

What was measured:
human RET kinase = target: T1, human RET kinase (Homo sapiens, UniProt P07949); assay: RET Kinase Assay (mobility shift assay, ATP at Km); format: biochemical; details: 23 μM ATP (Km), read-out: RET Enzymatic Activity
T1 construct: purchased Carna 08-159
Procedure, shortened: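 Human RET (7 nM) pre-incubated with compound 15 min at room temperature in 50 mM HEPES pH 7.5, 0.0015% Brij-35; reaction with 3 μM FAM-P2 peptide and 23 μM ATP (Km) 1 h at 28° C, EDTA-stopped. Mobility shift read; IC50 from sigmoid fit of percent of 2% DMSO control.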

BAF3 cells = assay: BAF3 Cell Proliferation Assay (CellTiter-Glo, without RET driven, IL-3); format: cell-based; details: Mus musculus; growth inhibition in BAF3 cells, 72 hours, with IL-3; read-out: BAF3 Cellular Activity
Procedure, shortened: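 BAF3 cells in RPMI-1640 with 10% FBS and 1 ng/ml IL-3, seeded 2,000/well and settled 24 h at 37 °C, then exposed to compound at final 10 μM down to 0.0015 μM (0.1% DMSO) for 72 h. Viability by CellTiter-Glo luminescence versus DMSO controls; IC50 from curve fit.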

T1 sequence (P07949 29-1114): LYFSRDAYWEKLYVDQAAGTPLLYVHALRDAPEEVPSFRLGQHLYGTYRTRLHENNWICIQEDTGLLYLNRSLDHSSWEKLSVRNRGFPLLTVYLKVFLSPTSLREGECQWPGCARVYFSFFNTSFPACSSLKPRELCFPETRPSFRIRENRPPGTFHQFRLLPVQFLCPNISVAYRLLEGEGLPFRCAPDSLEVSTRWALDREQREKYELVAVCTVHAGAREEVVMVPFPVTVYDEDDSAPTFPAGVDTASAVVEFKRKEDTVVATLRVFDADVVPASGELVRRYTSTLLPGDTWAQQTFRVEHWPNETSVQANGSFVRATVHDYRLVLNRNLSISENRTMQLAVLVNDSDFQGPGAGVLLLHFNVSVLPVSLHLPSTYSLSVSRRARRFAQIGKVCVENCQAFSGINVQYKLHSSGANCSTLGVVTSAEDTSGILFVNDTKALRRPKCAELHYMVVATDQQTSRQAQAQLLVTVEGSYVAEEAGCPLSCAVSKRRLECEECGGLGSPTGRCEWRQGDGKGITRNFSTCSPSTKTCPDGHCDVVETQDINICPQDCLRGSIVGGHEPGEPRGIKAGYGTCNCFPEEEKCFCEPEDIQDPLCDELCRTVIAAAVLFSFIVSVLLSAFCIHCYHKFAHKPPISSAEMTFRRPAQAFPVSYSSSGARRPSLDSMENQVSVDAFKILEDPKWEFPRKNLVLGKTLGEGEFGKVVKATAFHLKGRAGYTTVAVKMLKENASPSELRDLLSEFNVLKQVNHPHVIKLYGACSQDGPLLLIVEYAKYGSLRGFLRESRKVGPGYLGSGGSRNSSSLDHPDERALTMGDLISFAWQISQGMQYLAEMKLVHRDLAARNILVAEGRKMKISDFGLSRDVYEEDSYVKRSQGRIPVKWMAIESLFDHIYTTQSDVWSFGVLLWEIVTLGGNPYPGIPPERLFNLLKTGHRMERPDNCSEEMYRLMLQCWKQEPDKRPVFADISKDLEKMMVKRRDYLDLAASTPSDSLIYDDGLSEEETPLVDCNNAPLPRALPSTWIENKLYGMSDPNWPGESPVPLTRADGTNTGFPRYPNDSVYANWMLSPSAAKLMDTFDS

COc1ccc(CN2C3CC2CN(c2ccc(-c4cc(-c5ccc(C(C)(C)NC(C)=O)cn5)cn5ncc(C#N)c45)cn2)C3)cn1 [Example 12, N-(2-(6-(3-cyano-4-(6-(6-((6-methoxypyridin-3-yl)methyl)-3,6-diazabicyclo[3.1.1]heptan-3-yl)pyridin-3-yl)pyrazolo[1,5-a]pyridin-6-yl)pyridin-3-yl)propan-2-yl)acetamide]
IC50 (human RET kinase): 0.4 nM
IC50 (BAF3 cells): 1050 nM
